Laboratory results published in publication PMC7026418, “The kinase polypharmacology landscape of clinical PARP inhibitors” (Scientific Reports, 2020).
Like-named read-outs stand apart in the source and are kept apart here. One block for each molecule: values may come before it.

Legend:
Assay in all cases: biochemical
Parameters in all cases: DiscoveRx KINOMEscan active site-directed competition binding; percent of control kinase bound to immobilised ligand
CAMK1B = biological target: T1, CAMK1B (Homo sapiens, UniProt Q6P2M8)
T1 construct: gene PNCK
T1 sequence (Q6P2M8 whole entry): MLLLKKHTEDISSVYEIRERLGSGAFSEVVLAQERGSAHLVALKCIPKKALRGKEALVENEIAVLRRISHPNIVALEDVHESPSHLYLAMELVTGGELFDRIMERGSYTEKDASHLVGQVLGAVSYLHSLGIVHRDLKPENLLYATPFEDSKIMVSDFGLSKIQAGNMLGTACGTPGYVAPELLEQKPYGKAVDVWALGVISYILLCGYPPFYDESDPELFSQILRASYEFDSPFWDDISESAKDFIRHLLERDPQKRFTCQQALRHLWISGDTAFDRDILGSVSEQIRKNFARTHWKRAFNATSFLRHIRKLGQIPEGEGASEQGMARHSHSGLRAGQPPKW

EGFR(L861Q) = EGFR(L861Q) (Homo sapiens, UniProt P00533, L861Q)
EGFR(L861Q), sequence (P00533 whole entry L861Q): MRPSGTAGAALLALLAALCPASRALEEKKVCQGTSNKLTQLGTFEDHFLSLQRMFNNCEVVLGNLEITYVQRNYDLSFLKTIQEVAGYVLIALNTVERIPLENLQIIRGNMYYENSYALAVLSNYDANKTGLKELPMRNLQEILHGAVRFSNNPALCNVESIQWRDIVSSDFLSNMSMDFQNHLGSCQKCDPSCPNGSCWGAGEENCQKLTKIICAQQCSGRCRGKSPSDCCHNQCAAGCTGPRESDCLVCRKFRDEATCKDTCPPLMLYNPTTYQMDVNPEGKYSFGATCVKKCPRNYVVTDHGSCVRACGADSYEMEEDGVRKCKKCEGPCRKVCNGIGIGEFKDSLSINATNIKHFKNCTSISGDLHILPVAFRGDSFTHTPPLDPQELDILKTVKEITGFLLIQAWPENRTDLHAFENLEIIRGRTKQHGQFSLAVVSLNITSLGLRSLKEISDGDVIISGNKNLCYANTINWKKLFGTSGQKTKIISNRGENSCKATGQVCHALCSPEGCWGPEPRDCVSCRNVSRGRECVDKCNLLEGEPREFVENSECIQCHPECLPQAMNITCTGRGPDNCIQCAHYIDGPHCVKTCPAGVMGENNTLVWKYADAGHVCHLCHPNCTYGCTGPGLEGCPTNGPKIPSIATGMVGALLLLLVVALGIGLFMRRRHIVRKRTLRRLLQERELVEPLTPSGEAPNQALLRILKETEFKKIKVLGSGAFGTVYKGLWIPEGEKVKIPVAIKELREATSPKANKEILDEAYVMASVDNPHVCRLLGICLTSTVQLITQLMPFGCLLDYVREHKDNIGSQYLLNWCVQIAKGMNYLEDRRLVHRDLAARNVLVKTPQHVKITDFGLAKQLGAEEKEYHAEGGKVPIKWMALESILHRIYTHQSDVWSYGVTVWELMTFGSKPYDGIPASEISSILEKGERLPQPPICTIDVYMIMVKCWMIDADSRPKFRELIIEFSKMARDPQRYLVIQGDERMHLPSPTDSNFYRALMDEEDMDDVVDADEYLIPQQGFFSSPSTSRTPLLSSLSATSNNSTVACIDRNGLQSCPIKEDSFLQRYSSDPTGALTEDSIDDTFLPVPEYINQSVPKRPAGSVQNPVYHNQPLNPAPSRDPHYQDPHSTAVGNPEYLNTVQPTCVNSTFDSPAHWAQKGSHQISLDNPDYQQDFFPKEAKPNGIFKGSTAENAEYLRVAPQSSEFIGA

TNNI3K = biological target: T2, TNNI3K (Homo sapiens, UniProt Q59H18)
T2 sequence (Q59H18 1-835): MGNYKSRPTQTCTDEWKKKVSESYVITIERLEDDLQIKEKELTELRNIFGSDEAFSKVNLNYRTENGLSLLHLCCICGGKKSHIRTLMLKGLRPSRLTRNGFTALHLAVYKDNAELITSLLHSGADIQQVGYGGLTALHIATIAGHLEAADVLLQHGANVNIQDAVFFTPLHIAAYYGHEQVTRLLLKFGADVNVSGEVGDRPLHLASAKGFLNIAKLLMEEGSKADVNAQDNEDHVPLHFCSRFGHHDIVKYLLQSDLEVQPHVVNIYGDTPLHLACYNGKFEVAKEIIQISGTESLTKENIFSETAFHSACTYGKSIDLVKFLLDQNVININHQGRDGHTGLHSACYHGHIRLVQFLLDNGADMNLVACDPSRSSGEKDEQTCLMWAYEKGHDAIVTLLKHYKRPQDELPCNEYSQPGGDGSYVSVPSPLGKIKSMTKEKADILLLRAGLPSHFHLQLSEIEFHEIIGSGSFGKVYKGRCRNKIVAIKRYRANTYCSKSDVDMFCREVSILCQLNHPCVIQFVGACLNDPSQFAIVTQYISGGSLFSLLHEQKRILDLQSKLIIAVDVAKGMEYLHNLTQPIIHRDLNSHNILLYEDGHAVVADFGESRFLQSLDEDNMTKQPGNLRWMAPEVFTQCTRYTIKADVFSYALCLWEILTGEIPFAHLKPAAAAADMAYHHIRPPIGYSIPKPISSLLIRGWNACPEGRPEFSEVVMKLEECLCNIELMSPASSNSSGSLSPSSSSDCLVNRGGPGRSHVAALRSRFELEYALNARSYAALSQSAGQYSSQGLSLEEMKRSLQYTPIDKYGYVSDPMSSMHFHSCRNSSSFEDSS

PKAC-beta = biological target: T3, PKAC-beta (Homo sapiens, UniProt P22694)
T3 construct: gene PRKACB

DMPK = biological target: T4, DMPK (Homo sapiens, UniProt Q09013)
T4 sequence (Q09013 1-629): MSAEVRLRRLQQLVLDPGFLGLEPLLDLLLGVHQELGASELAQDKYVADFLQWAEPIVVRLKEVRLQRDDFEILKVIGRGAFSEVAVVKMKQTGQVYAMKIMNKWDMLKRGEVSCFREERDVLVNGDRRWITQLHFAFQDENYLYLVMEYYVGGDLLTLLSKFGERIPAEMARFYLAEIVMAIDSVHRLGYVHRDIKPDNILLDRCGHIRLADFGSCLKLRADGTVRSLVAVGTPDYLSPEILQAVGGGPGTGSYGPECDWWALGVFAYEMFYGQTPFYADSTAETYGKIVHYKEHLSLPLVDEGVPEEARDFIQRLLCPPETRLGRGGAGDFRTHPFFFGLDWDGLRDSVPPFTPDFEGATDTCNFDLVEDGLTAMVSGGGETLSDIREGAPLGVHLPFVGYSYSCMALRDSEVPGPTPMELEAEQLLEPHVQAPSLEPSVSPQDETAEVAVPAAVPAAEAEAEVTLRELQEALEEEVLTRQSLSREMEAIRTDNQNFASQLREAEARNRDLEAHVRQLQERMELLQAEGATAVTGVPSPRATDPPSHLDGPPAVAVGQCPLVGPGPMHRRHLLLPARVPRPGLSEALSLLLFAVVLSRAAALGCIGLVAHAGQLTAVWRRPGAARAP

WEE1 = WEE1 (Homo sapiens, UniProt P30291)
WEE1, sequence (P30291 whole entry): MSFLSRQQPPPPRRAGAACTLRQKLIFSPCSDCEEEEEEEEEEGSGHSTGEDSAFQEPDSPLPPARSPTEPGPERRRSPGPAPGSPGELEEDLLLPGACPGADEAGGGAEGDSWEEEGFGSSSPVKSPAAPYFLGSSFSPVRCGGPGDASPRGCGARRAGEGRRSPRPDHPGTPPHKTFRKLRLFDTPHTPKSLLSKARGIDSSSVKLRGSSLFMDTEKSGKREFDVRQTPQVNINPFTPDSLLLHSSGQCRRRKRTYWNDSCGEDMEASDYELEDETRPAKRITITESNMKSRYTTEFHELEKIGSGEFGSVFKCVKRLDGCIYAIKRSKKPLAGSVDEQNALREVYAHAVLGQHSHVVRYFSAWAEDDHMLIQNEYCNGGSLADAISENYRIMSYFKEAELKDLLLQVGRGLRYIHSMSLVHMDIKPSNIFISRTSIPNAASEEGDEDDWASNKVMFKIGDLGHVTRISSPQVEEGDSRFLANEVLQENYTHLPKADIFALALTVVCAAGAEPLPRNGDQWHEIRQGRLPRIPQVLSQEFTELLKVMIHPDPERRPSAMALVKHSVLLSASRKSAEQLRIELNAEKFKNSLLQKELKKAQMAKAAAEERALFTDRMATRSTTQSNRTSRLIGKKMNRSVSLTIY

PRKCE = biological target: T5, PRKCE (Homo sapiens, UniProt Q02156)
T5 sequence (Q02156 1-737): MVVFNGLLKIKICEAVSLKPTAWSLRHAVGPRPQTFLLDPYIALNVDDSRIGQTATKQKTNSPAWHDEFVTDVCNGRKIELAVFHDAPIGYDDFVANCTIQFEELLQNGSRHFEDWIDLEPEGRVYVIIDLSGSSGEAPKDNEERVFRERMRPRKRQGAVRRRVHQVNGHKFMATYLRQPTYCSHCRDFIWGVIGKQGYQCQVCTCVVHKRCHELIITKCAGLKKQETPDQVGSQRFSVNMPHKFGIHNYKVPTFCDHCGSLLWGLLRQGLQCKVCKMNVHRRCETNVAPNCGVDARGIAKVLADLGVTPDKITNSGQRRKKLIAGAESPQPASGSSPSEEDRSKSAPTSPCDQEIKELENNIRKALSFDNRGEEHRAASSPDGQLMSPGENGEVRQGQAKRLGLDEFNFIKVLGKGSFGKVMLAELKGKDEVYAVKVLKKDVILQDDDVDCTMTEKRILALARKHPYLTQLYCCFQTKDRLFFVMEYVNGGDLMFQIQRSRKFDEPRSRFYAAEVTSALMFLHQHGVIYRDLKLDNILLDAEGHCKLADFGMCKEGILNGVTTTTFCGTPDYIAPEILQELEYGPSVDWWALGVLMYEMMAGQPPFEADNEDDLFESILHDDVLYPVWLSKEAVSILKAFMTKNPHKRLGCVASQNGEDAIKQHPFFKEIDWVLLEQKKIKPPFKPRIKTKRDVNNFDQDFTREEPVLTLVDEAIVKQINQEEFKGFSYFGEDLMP

[1] = biological target: T6, JAK1(JH1domain-catalytic) (Homo sapiens, UniProt P23458)
T6 construct: JH1domain-catalytic
T6 sequence (P23458 whole entry): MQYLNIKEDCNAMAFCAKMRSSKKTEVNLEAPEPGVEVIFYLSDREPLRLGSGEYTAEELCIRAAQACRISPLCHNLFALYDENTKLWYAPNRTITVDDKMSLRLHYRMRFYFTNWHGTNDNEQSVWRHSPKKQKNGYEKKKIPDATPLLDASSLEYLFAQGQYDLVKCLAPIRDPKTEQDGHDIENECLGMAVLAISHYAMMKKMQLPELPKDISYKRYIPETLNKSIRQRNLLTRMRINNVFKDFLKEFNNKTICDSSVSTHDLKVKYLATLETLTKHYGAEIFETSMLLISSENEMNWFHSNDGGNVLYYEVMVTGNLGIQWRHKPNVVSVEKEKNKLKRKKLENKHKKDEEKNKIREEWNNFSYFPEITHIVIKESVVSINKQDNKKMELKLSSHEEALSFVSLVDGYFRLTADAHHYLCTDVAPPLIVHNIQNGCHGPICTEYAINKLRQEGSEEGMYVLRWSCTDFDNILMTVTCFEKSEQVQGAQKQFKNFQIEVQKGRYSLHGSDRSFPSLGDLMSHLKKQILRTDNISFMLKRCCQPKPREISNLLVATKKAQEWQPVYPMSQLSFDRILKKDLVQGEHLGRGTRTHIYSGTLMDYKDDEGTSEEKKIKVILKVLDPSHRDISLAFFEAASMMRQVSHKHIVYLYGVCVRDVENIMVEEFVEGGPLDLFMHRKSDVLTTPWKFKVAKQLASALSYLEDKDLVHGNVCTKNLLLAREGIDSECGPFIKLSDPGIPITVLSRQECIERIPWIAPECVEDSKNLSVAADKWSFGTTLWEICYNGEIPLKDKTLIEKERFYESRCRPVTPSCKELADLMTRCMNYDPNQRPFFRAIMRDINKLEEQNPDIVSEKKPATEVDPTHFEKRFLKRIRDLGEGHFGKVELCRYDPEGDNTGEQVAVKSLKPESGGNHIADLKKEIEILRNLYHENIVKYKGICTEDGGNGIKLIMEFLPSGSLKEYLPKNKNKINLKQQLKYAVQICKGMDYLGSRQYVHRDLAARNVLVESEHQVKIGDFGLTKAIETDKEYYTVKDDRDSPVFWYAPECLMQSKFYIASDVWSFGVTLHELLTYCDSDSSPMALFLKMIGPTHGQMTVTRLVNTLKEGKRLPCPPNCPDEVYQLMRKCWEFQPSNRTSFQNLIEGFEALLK

[2] = read-out: Olaparib / %Ctrl @ 10000nM
[3] = read-out: Talazoparib (BMN 673) / %Ctrl @ 10000nM
[4] = read-out: Rucaparib / %Ctrl @ 10000nM, binding competition, % of control
[5] = read-out: Niraparib (MK-4827) / %Ctrl @ 10000nM

percent of control binding at 10 µM (CAMK1B; [2]): 97% | percent of control binding at 10 µM (EGFR(L861Q); [2]): 91% | percent of control binding at 10 µM (TNNI3K; [2]): 84% | percent of control binding at 10 µM (PKAC-beta; [2]): 100% | percent of control binding at 10 µM (DMPK; [2]): 98% | percent of control binding at 10 µM (WEE1; [2]): 100% | percent of control binding at 10 µM (PRKCE; [2]): 93% | percent of control binding at 10 µM [1, 2]: 81%
SMILES: O=C(c1cc(Cc2n[nH]c(=O)c3ccccc23)ccc1F)N1CCN(C(=O)C2CC2)CC1 [Olaparib]

percent of control binding at 10 µM (CAMK1B; [3]): 100% | percent of control binding at 10 µM (EGFR(L861Q); [3]): 82% | percent of control binding at 10 µM (TNNI3K; [3]): 100% | percent of control binding at 10 µM (PKAC-beta; [3]): 56% | percent of control binding at 10 µM (DMPK; [3]): 83% | percent of control binding at 10 µM (WEE1; [3]): 100% | percent of control binding at 10 µM (PRKCE; [3]): 93% | percent of control binding at 10 µM [1, 3]: 100%
SMILES: Cn1ncnc1[C@H]1c2n[nH]c(=O)c3cc(F)cc(c23)N[C@@H]1c1ccc(F)cc1 [Talazoparib]

percent of control binding at 10 µM (CAMK1B; [4]): 100% | percent of control binding at 10 µM (EGFR(L861Q); [4]): 70% | percent of control binding at 10 µM (TNNI3K; [4]): 92% | percent of control binding at 10 µM (PKAC-beta; [4]): 99% | percent of control binding at 10 µM (DMPK; [4]): 100% | percent of control binding at 10 µM (WEE1; [4]): 92% | percent of control binding at 10 µM (PRKCE; [4]): 74% | percent of control binding at 10 µM [1, 4]: 100%
SMILES: CNCc1ccc(-c2[nH]c3cc(F)cc4c3c2CCNC4=O)cc1 [Rucaparib]

SMILES: NC(=O)c1cccc2cn(-c3ccc([C@@H]4CCCNC4)cc3)nc12 [Niraparib]
percent of control binding at 10 µM (CAMK1B; [5]): 94% | percent of control binding at 10 µM (EGFR(L861Q); [5]): 88% | percent of control binding at 10 µM (TNNI3K; [5]): 95% | percent of control binding at 10 µM (PKAC-beta; [5]): 96% | percent of control binding at 10 µM (DMPK; [5]): 90% | percent of control binding at 10 µM (WEE1; [5]): 100% | percent of control binding at 10 µM (PRKCE; [5]): 100% | percent of control binding at 10 µM [1, 5]: 100%
